Results on 5 molecules are retold here after patent US20240269125A1, “METHODS OF TREATING CORONAVIRUS INFECTIONS BY CO-ADMINISTERING AN FKBP LIGAND AND AN ANTIVIRAL AGENT” (priority 2020, published 2024).

The test system of data set [1] is SARS CoV-2 (USA-WA1/2020). The data set is described as follows: organism not typed. It counts as cell-based.
A short description of data set [2]: in vitro. The note with it: African green monkey.
Another data set concerns Vero E6 cells. The note with it: Table 1, Example 6; 50% cell death in absence of virus, day 4.
In data set [3] the test system is SARS COV-2 (USA_WA1/2020). It counts as cell-based. The conditions noted are these: Example 10; remdesivir alone up to 6,666.667 nM; FK1706 alone up to 60,000 nM.
Data set [4] relates to SARS CoV-2 (USA-WA1/2020). The data set is described as follows: organism not typed. The note with it: for reduction in SARS COV-2 virus: Example 6. It counts as cell-based.
Data set [5] is described as follows: in vitro. The conditions noted are these: African green monkey, TC50, Table 1, Example 6.
The mark [6] stands for this setting: TC50, Table 2, Example 7, 50% cell death in absence of virus, day 3.
[7] abbreviates: Example 9, antiviral alone at sub-therapeutic level (molnupiravir 0.3 μM; remdesivir 3 μM).
Setting [8] is: TC50, Table 4, Example 9, single conc. (sub-therapeutic antiviral alone).

Like-named read-outs stand apart in the source and are kept apart here. Bounds are passed on as bounds.

One may read the EC50 as the concentration at which the effect is half-maximal. As to `O=C(C(=O)N1CCCC[C@H]1C(=O)NCCCc1ccccc1)c1ccccc1` [ElteN378], the “reduction in SARS COV-2 virus” value in data set [1] (Example 7, ElteN378 0.12-30 μM, alone or co-administered with fixed antiviral) is listed as 0-7%. The concentration giving a half-maximal response (EC50) in data set [1] (Vero C1008, 72 h, Table 2, Example 7, Vero E6, concentration inhibiting CPE by 50%, day 3, read-out: EC50) was > 30 µM. The CC50 in the data set “in vitro [2]” (setting [6]) is > 30 µM.

Regarding `CO[C@H]1C[C@@H](C)C/C(C)=C/[C@@H](CC(C)=O)C(=O)C[C@H](O)[C@@H](C)C(/C(C)=C/[C@@H]2CC[C@@H](O)[C@H](OC)C2)OC(=O)C2CCCCC2C(=O)C(=O)[C@]2(O)O[C@H]1[C@@H](OC)C[C@H]2C` (some centres unmarked) [FK1706], the TC50 in the data set on Vero E6 cells was >90 µM. In data set [3], the “antiviral activity as single agent” value is “no significant antiviral activity”. Further, the “reduction in SARS COV-2 virus” value in data set [4] (FK1706 11-90 μM, alone or co-administered with fixed antiviral) was 0-7%; in data set [1] (Example 8, FK1706 alone 2.85-90 μM) it was 0-10%. Also, the EC50 is > 90 µM in data set [4] (Vero C1008, 96 h, Table 1, Example 6, Vero E6, concentration inhibiting CPE by 50%, day 4, read-out: EC50) and > 90 µM in data set [1] (Vero C1008, 72 h, Table 3, Example 8, Vero E6, day 3, read-out: EC50). Moreover, the CC50 in the data set “in vitro [2]” (TC50, Table 3, Example 8, day 3) was > 90 µM.

Turning to `CCC(C)(C)C(=O)C(=O)N1CCC[C@H]1C(=O)O` [GPI-1485], in data set [1] (Example 9, GPI-1485 40-320 μM, alone or co-administered with fixed antiviral), the “reduction in SARS COV-2 virus” value is reported as 0-6%. Further, the EC50 in data set [1] (Vero C1008, 72 h, Table 4, Example 9, Vero E6, day 3) was > 320 µM. For the same molecule, the CC50 in the data set “in vitro [2]” (TC50, Table 4, Example 9, day 3) was > 320 µM.

On to `CC(C)C(=O)OC[C@H]1O[C@@H](n2ccc(=NO)[nH]c2=O)[C@H](O)[C@@H]1O` [Molnupiravir, ((2R,3S,4R,5R)-3,4-dihydroxy-5-(4-(hydroxyimino)-2-oxo-3,4-dihydropyrimidin-1(2H)-yl)tetrahydrofuran-2-yl)methyl isobutyrate], for which the “reduction in SARS COV-2 virus” value was 4-13% in data set [1] (Example 8, molnupiravir alone 0.3 μM) and 4-13% in data set [1] (setting [7]). The EC50 was > 0.3 µM in data set [1] (Table 3, Example 8, single conc. (0.3 μM molnupiravir alone), read-out: EC50) and > 0.3 µM in data set [1] (Table 4, Example 9, single conc. (sub-therapeutic antiviral alone), read-out: EC50). The CC50 in “in vitro [2]” (TC50, Table 3, Example 8, single conc. (0.3 μM molnupiravir alone)) is > 0.3 µM; in the data set “in vitro [2]” (setting [8]), > 0.3 µM.

For `CCC(CC)COC(=O)[C@H](C)N[P@](=O)(OC[C@H]1O[C@@](C#N)(c2ccc3c(N)ncnn23)[C@H](O)[C@@H]1O)Oc1ccccc1` [Remdesivir], the EC50 was > 3 µM in data set [4]; 3.63 µM in data set [4] (Vero C1008, 96 h); > 3 µM in data set [1] (Table 2, Example 7, single conc. (sub-therapeutic antiviral alone)); > 0.3 µM in data set [1] (Table 4, Example 9, single conc. (sub-therapeutic antiviral alone)); 7.31 µM in data set [1] (Vero C1008, 72 h, Table 2, Example 7, Vero E6, concentration inhibiting CPE by 50%, day 3). Also, the “reduction in SARS COV-2 virus” value is recorded as 5-14% in data set [4] (antiviral alone at sub-therapeutic level (remdesivir 3 μM; M128533 1 μg/mL)); 2-19% in data set [1] (Example 7, antiviral alone at sub-therapeutic level (remdesivir 3 μM; M128533 1 μg/mL)); 20-30% in data set [1] (setting [7]). For the same molecule, the CC50 in “in vitro [5]” (50% cell death in absence of virus, day 4) is > 100 µM; in the data set “in vitro [5]” (single conc. (sub-therapeutic antiviral alone)), > 3 µM; in “in vitro [2]” (setting [6]) it was > 100 µM; in the data set “in vitro [2]” (TC50, Table 2, Example 7, single conc. (sub-therapeutic antiviral alone)), > 3 µM; in “in vitro [2]” (setting [8]), > 0.3 µM.
